Assay results as given in patent publication US20030158250A1, “Agents correcting gene expression regulatory error” (priority 2000, published 2003).

Experiments:
Assay type in all cases: cell-based
RANTES mRNA = test: RT-PCR of RANTES mRNA in monocytes; conditions: human monocytes
Description: (§1) Four-hundred milliliters of blood was collected from a human normal individual donor. The collected blood was diluted 2-folds with PBS(−), overlaid on Ficoll-paque (manufactured by Pharmacia), and centrifuged at 500×g for 20 minutes. The peripheral blood mononuclear cells (PBMCs) in the intermediate layer was collected with a pipette, and washed with RPMI 1640 medium (manufactured by Bio Whittaker). The collected PBMCs was suspended in a storage solution of 90% FCS (manufactured by JRH Biosciences)/10% dimethyl sulfoxide, and stored in liquid nitrogen. During the experiment, these stored PBMCs were rapidly melted in water bath at 37° C., and washed with RPMI 1640 medium containing 10 μg/ml Dnase (manufactured by Calbiochem). Thereafter, the number of living cells was calculated by trypan blue staining method, and subjected to each experiment.
PBMCs were suspended in RPMI 1640 medium containing 5% human serum of blood type-AB, 0.1 mM nonessential amino acid, 1 mM sodium pyruvate, 2 mM L-glutamine (hereinabove manufactured by Bio Whittaker), 10 mM HEPES (manufactured by nakalai tesque), and 1% streptomycin-penicillin (manufactured by Gibco BRL) (hereinafter simply referred to as “5HRPMI medium”) so as to have a concentration of 4×10^6 cells/ml. […]

lyzozyme (Lyz) = test: RT-PCR expression level of Lyz gene in monocytes; conditions: human monocytes, 30 PCR cycles
Description: as §1
(§2) PBMCs were suspended in RPMI 1640 medium containing 5% human serum of blood type-AB, 0.1 mM nonessential amino acid, 1 mM sodium pyruvate, 2 mM L-glutamine (hereinabove manufactured by Bio Whittaker), 10 mM HEPES (manufactured by nakalai tesque), and 1% streptomycin-penicillin (manufactured by Gibco BRL) (hereinafter simply referred to as “5HRPMI medium”) so as to have a concentration of 4×10^6 cells/ml. Thereafter, the suspension was spread on a 6-well cell culture plate (manufactured by Falcon) in a volume of 3 ml/well, and the cells were incubated in a wet-type incubator at 37° C. and 5% CO2 for 1.5 hours. After 1.5 hours, the non-adherent cells were removed by suction, and each well was washed with RPMI 1640 medium, and 2 ml of the 5HRPMI medium was added to the wells, to give monocytes.
(§3) To the monocytes obtained above was added in each well 8 μl of an aqueous DGE solution, or 8 μl of water as a control, and the cells were incubated in a wet-type incubator at 37° C. and 5% CO2 for 5 hours. Thereafter, with addition of 2 μl of a 1 μg/ml aqueous LPS solution or 2 μl of a 25 μM TPA dimethyl sulfoxide solution to each well, or with addition of neither of these substances thereto, the cells were cultured for additional 4 hours. Thereafter, RNA was prepared from each cell in accordance with the description of the kit using RNeasy Mini Kit (manufactured by QIAGEN, 74104). The group with addition of water alone or the aqueous DGE solution alone to the cells was set as a negative control, and the group with addition of water and the aqueous LPS solution or the aqueous TPA solution to the cells was set as a positive control.
(§4) A liquid mixture having a total volume of 60 μl of 0.5 μg of RNA prepared above, 10 mM Tris-HCl (pH 8.3), 50 mM KCl, 5 mM MgCl2, 1 mM dNTP mixtures, 150 pmol of Random 6 mers, 60 U Ribonuclease Inhibitor (manufactured by Takara Shuzo Co., Ltd., 2310A), and 15 U Reverse Transcriptase XL (AMV) (manufactured by Takara Shuzo Co., Ltd., 2620A) were incubated at 30° C. for 10 minutes and thereafter at 42° C. for 1 hour using a thermal cycler (GeneAmp PCR System 9600, manufactured by Applied Biosystems), and the mixture was heated at 99° C. for 5 minutes to deactivate the enzyme, to give cDNA.
(§5) Oligonucleotide primers for reaction of PCR were designed based on mRNA nucleotide sequence of each gene listed in the following tables, and synthesized in the same manner as above. In Tables 4 and 5, each gene evaluated in this Example, GenBank Accession NO, the name of oligonucleotide primers and SEQ ID NOs of the primers in Sequence Listing were listed. […]

[1] = tested on: signal peptidase complex (18 kDa) (SPC18); test: RT-PCR expression level of SPC18 gene in monocytes; conditions: human monocytes, 30 PCR cycles
Description: as §1, §2, §3, §4, §5

interleukin-1α (IL-1α) = test: RT-PCR expression level of IL-1α gene in monocytes; conditions: human monocytes, 30 PCR cycles
Description: as §1, §2, §3, §4, §5

interleukin-10 (IL-10) = test: LPS-induced IL-10 production in RAW 264.7 cells (ELISA); conditions: final concentration 20 μM, 5 hours, then LPS 18 hours, IL-10 in culture supernatant by ELISA
Description: RAW 264.7 cells (ATCC TIB 71) were suspended in a Dulbecco's modified Eagle's medium (manufactured by Bio Whittaker; 12-604F) containing 10% fetal bovine serum (manufactured by Gibco), so as to have a concentration of 3×10^5 cells/ml. The cell suspension was added to each well of a 48-well microtiter plate in a volume of 0.5 ml each. The cells were cultured at 37° C. in the presence of 5% CO2 gas overnight. To each well was added 5 μl of a 2 mM DGE aqueous solution (final concentration: 20 μM), and the cells were cultured for additional 5 hours. Thereafter, 5 μl of a 100 μg/ml lipopolysaccharide (LPS, manufactured by Sigma, L-2012) aqueous solution was added thereto, and the cells were cultured for 18 hours, and thereafter the culture supernatant was recovered. The content of the interleukin-10 (IL-10) in the culture supernatant was assayed by the enzyme immuno-sandwich assay. Here, the group with no addition of DGE and LPS aqueous solution (control) was set as a negative control, and the group with addition of LPS aqueous solution (control+LPS) alone was set as a positive control. In addition, all of the assays were carried out twice.

[2] = substance added alone, Con. (water) +
[3] = substance added alone, Con. (water) +/−
[4] = L + D: DGE and LPS, LPS alone +/−
[5] = T + D: DGE and TPA, TPA alone +

Row | Compound | amplification of band ascribed to RANTES mRNA, stimulant alone (RANTES mRNA; LPS alone, 4 hours, RT-PCR) | expression level of Lyz gene (lyzozyme (Lyz); [2]) | expression level of SPC18 gene [1, 2] | expression level of IL-1α gene (interleukin-1α (IL-1α); [3]) | inhibition of LPS-induced IL-10 production (interleukin-10 (IL-10)) | induction of RANTES mRNA by LPS, effect of DGE (RANTES mRNA; DGE 5 hours, then LPS 4 hours, RT-PCR band) | expression level of Lyz gene (lyzozyme (Lyz); [4]) | expression level of Lyz gene (lyzozyme (Lyz); T + D: DGE and TPA, TPA alone +/−) | expression level of SPC18 gene [1, 4] | expression level of SPC18 gene [1, 5] | expression level of IL-1α gene (interleukin-1α (IL-1α); L + D: DGE and LPS, LPS alone +++) | expression level of IL-1α gene (interleukin-1α (IL-1α); [5])
1 | lipopolysaccharide [LPS, reference compound] | induction | +/− | +/− | +++ |  |  |  |  |  |  |  | 
2 | 12-o-tetradecanoylphorbol 13-acetate [TPA, reference compound] |  | +/− | + | + |  |  |  |  |  |  |  | 
3 | O=C1C=CC(CO)OC1O [DGE, L-glycero-1,5-epoxy-1αβ,6-dihydroxy-cis-hex-3-en-2-one] |  | + | + | − | inhibition of LPS-induced IL-10 production was found | inhibited | + | + | + | + | +/− | −
